According to patent US20020104106A1, “Non-mammalian transgenic animal model for cellular proliferative diseases” (priority 1999, published 2002):

System: tumor fly model
Assay: Screening assay: extracts fed to v-myb tumor flies, delay of tumor progression
Format: in vivo, Drosophila melanogaster
Conditions: extract concentration fed to the larva/fly that delayed tumor progression by 20% or more
Method: In the screening methods of the subject invention, a quantity of a candidate agent is generally orally administered to the fly. Following oral administration, the affect of the candidate agent on the metastatic tumors (or appearance thereof) of the fly is determined, typically by comparison with a control (i.e. a transgenic fly to which the candidate agent has not been administered). The affect of the candidate agent is determined by determining whether one or more of the phenotypic characteristics of the neoplastic condition are exacerbated or ameliorated in the test fly as compared to the control fly, where characteristics that are monitored include tumor growth, tumor metastasis, and the like. The candidate agent is generally orally administered to the fly by mixing the agent into the fly nutrient medium, e.g. water, aqueous solution with additional nutrient agents, etc., and placing the medium in the presence of the fly, (either the larva or adult fly, usually the adult fly) such that the fly feeds on the medium. Generally a plurality of assay mixtures are run in parallel with different agent concentrations to obtain a differential response to the various concentrations of candidate agent. Typically, one of these concentrations serves as a negative control, i.e. no compound. […]

**Q.** With `CC(C)=CCC/C(C)=C/C=C/C(C)=C/C=C/C(C)=C/C=C/C=C(C)/C=C/C=C(C)/C=C/C=C(\C)CCC=C(C)C` [Lycopene] as the molecule, how does the “Positive antitumor activity dose range” value read?
**A.** .01%-100%
